Test results published in paper PMC6255377, “New 1-Aryl-3-Substituted Propanol Derivatives as Antimalarial Agents” (Molecules, 2009).
Where two headings read alike, the source gives them in different places.

Key:
P. berghei ANKA strain = assay type: in vivo; settings: for appearance / toxicity in treated mice: in vivo; for GIP of P. bergei (growth inhibition percentage): 10 mg/kg/day, positive control
Method: The in vivo antimalarial activity of the compounds was measured by the classical 4-day suppressive test. Briefly, on day 0, groups of five NMRI male mice, weighing 20 ± 2 g each, were inoculated with 2 × 10^7 red blood cells RBCs infected by erythrocytic stages of rodent malaria parasite P. berghei ANKA strain. Two hours later, each group of mice was treated intraperitoneally with a dose of 50 mg/kg of the selected compound, previously prepared in DMSO. Treatment was continued from day 1 to day 3, always at similar times. On day 4, Giemsa-stained thin blood smears from the tail of the mice were prepared and microscopically examined with 1,000× magnification. The mean of the parasitemia of each group was calculated in a total of 1,000 RBCs, and the growth inhibition percentage of parasite was estimated in relation to the control group, which received only the solvent of the products. % inhibition = [(Par control – Par comp)/(Par control)] × 100

[1] = tested on: P. falciparum 3D7 strain, chloroquine sensitive; assay: In vitro antimalarial activity screening (SYBR Green I micromethod); assay type: cell-based; settings: Plasmodium falciparum, read-out: P. falciparum 3D7 IC50
Method: The SYBR^©GreenI-based micromethod was followed for testing the antimalarial activity of the compounds. Erythrocytic stages of P. falciparum 3D7 strain, chloroquine sensitive, were maintained in RPMI 1640 culture medium supplemented with 0.5% Albumax II at 37 °C in an atmosphere with 5% CO2. […] Next, stock solutions of each compound were prepared in DMSO and diluted in RPMI medium in order to obtain concentrations from 10 to 0.01 µg/mL. […] All compounds and controls were placed in triplicate. The plate was incubated under the same conditions. After 48 h, the plate was removed from the incubator and frozen for at least 1 h at -70 °C and then thawed. Finally, 100 µL of SYBR^©GreenI in lysis buffer (0.2 µL/mL) was added per well and shaken for 5 minutes or until no precipitated erythrocytes were observed. The plate was left to stand in the dark for 1 h at room temperature. Fluorescence intensity (FI) for each well was measured. The background of the nonparasitized erythrocytes was subtracted from each well tested.

Murine J774 macrophages = assay: Nonspecific cytotoxicity test (MTT); assay type: cell-based; settings: 10 µg/mL, 24 h exposure
Method: Murine J774 macrophages were maintained in RPMI 1640 medium supplemented with 10% FBS at 37 °C in a 5% CO2 atmosphere. First, in a flat bottom 96-well microplate, 100 µL of macrophage suspension in RPMI medium, containing 5 × 10^4 cells, were distributed per well. The cells were allowed to attach for 24 h at 37 °C. Next, the medium was replaced by different concentrations of the compounds in 200 µL of medium, or DMSO at the same concentration as growth control, and the cells were exposed to the compounds solutions for another 24 h. Each concentration was assayed three times. Afterwards, the medium was eliminated and 100 µL/well of 3-(4,5-dimethythiazol-2-yl)-2,5-diphenyltetrazolium bromide (MTT) solution, 0.4 mg/mL in PBS, was added and the plates were returned to incubator for 1 h. The suspension was removed and the toxic effect of the compounds was assessed by the reduction of MTT to formazan crystals (as a cell viability indicator); said crystals were solubilized by adding 100 µL of DMSO. Finally, the optical density (OD) was measured at 595 nm and the toxicity percentage was calculated as follows:% toxicity = [(O.D.control - O.D.comp)/(O.D.control)] × 100

[2] = tested on: ferriprotoporphyrin IX biomineralization; design: method as in PMID 12128052; settings: read-out: IC50 in the FBIT test; cited from earlier work
[3] = 3D7, Table 1, 48 h incubation, mean of two experiments in triplicate

Row | IC50 [1, 3] [nM] | SMILES | appearance / toxicity in treated mice (P. berghei ANKA strain) | other results
1 | 160 | OC(CCN1CCN(c2cccc3ccccc23)CC1)c1csc2ccc(F)cc12 (centres unmarked) [Compound 12] | the appearance of the mice was good | 
2 | 330 | COc1ccccc1N1CCN(CCC(O)c2csc3ccc(F)cc23)CC1 (centres unmarked) [Compound 15] | looked unhealthy and showed clear evidence of weight loss | 
3 | 380 | Cc1ccc2cccc(N3CCN(CCC(O)c4csc5ccc(F)cc45)CC3)c2n1 (centres unmarked) [Compound 23] | looked unhealthy and showed clear evidence of weight loss | 
4 |  | CCN(CC)CCCC(C)Nc1ccnc2cc(Cl)ccc12 (centres unmarked) [Chloroq., Chloroquine, reference compound] |  | GIP of P. bergei (growth inhibition percentage) (P. berghei ANKA strain; four-day treatment, NMRI male mice): 100% at 10 mg/kg; GIP of P. bergei (growth inhibition percentage) (P. berghei ANKA strain; four-day treatment, NMRI male mice, listed as chloroquine): GIP = Growth inhibition percentage of the rodent malaria parasite after a four-day treatment. 10 mg/kg/day of chloroquine, positive control, inhibited 100% the growth parasite. ^a Toxic = death of more than half of the animals in the tested group.; IC50 ([1]; 3D7, 48 h): 80 nM
5 |  | C=C[C@H]1C[N@@]2CC[C@H]1C[C@H]2[C@H](O)c1ccnc2ccc(OC)cc12 [quinine] |  | IC50 [2]: 324000 nM

Row | SMILES | IC50 [1, 3] [nM] | appearance / toxicity in treated mice (P. berghei ANKA strain) | other results
6 | O=[N+]([O-])c1ccc(N2CCC(NCCC(O)c3csc4ccccc34)CC2)c(C(F)(F)F)c1 (centres unmarked) [Compound 31, 1-(Benzo[b]thiophen-3-yl)-3-[1-(4-nitro-2-trifluoromethylphenyl)piperidin-4-ylamino]propan-1-ol] | 190 |  | GIP of P. bergei at 50 mg/kg/day (growth inhibition percentage) (P. berghei ANKA strain; 50 mg/kg/day intraperitoneally, four-day treatment, NMRI male mice): Toxic; appearance / toxicity in treated mice (P. berghei ANKA strain; male, NMRI, mouse, 4 days): cytotoxicity of compound 31 was confirmed in the in vivo test; cytotoxicity on murine macrophages J774 (Murine J774 macrophages): showed toxicity
